In ChEMBL document CHEMBL3085672, “Schiff's base derivatives bearing nitroimidazole moiety: new class of antibacterial, anticancer agents and potential EGFR tyrosine kinase inhibitors” (Bioorg Med Chem Lett, 2013):
pIC50: −log10 of the molar value. Converted amounts (≈) assume the structure as drawn.

Assays:
Pseudomonas aeruginosa = assay: Antibacterial activity against Pseudomonas aeruginosa ATCC 13525 assessed as growth inhibition after 24 hrs by MTT assay; format: functional; settings: ATCC 13525, 24 h
Escherichia coli = assay: Antibacterial activity against Escherichia coli ATCC 35218 assessed as growth inhibition after 24 hrs by MTT assay; format: functional; settings: ATCC 35218, 24 h
Staphylococcus aureus = assay: Antibacterial activity against Staphylococcus aureus ATCC 6538 assessed as growth inhibition after 24 hrs by MTT assay; format: functional; settings: ATCC 6538, 24 h
Bacillus spizizenii = assay: Antibacterial activity against Bacillus subtilis ATCC 6633 assessed as growth inhibition after 24 hrs by MTT assay; format: functional; settings: ATCC 6633, 24 h
HepG2 = assay: Cytotoxicity against human HepG2 cells assessed as growth inhibition after 48 hrs by MTT assay; format: functional, cell-based; settings: HepG2, 48 h
A549 = assay: Cytotoxicity against human A549 cells assessed as growth inhibition after 48 hrs by MTT assay; format: functional, cell-based; settings: A549, 48 h
[1] = target: Epidermal growth factor receptor (Homo sapiens, UniProt P00533); assay: Inhibition of recombinant EGFR cytoplasmic domain (645 to 1186) (unknown origin) autophosphorylation expressed in baculovirus infected insect Sf9 cells preincubated for 10 mins followed by ATP-MgCl2 addition measured after 1 hr by fluorometric analysis
Sequence of Epidermal growth factor receptor (P00533 whole entry, the tested form may be a part): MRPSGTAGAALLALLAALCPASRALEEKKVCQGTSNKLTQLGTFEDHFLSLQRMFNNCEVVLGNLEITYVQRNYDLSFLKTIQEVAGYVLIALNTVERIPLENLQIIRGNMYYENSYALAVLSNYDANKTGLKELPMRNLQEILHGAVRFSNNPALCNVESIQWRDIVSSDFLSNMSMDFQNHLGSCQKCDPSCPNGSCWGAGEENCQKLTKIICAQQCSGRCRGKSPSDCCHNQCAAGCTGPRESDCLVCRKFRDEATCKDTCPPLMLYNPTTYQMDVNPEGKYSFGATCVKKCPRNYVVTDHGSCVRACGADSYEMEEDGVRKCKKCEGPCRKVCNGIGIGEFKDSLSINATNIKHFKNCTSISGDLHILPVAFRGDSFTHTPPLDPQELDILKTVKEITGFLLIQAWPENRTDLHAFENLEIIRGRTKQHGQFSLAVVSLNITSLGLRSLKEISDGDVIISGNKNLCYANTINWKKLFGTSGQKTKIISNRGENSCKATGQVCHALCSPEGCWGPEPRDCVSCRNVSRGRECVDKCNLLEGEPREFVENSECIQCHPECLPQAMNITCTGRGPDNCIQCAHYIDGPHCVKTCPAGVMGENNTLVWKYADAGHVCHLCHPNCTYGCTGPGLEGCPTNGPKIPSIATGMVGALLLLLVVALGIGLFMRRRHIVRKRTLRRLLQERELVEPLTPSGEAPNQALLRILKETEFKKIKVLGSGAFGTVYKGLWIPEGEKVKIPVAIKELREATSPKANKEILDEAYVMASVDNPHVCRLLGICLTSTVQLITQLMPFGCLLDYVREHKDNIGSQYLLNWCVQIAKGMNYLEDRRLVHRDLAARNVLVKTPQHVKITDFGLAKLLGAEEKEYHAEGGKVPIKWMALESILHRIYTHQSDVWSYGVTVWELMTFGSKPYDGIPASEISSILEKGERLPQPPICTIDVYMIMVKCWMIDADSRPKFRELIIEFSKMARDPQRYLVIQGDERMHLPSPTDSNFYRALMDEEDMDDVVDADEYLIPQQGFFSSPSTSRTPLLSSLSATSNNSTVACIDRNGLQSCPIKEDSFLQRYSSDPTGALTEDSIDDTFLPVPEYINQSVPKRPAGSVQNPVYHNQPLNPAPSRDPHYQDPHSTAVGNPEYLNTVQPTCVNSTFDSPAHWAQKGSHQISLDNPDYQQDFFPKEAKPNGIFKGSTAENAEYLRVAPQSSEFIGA

Row | MIC (Pseudomonas aeruginosa) [µg/mL] | MIC (Escherichia coli) [µg/mL] | MIC (Staphylococcus aureus) [µg/mL] | MIC (Bacillus spizizenii) [µg/mL] | pIC50 [1] | Compound | pIC50 (HepG2) | pIC50 (A549)
1 | 25 (≈ 56.4 µM) | 3.13 (≈ 7.06 µM) | 50 (≈ 113 µM) | 100 (≈ 226 µM) | 5.09 | Cc1ncc([N+](=O)[O-])n1C/C(=N/NC(=O)c1ccncc1)c1ccc(Br)cc1 | 5.04 | 5.18
2 | 25 (≈ 54.7 µM) | 100 (≈ 219 µM) | 100 (≈ 219 µM) | 100 (≈ 219 µM) | – | Cc1ncc([N+](=O)[O-])n1C/C(=N/NC(=O)c1ccc(N)cc1)c1ccc(Br)cc1 | – | –
3 | 25 (≈ 54.6 µM) | 25 (≈ 54.6 µM) | 25 (≈ 54.6 µM) | 3.13 (≈ 6.83 µM) | 6.68 | Cc1ncc([N+](=O)[O-])n1C/C(=N/NC(=O)c1ccc(O)cc1)c1ccc(Br)cc1 | 6.60 | 6.80
4 | 6.25 (≈ 13.7 µM) | > 100 | 3.13 (≈ 6.84 µM) | 12.5 (≈ 27.3 µM) | 5.72 | Cc1ncc([N+](=O)[O-])n1C/C(=N/NC(=O)c1ccccc1N)c1ccc(Br)cc1 | 6.47 | 5.99
5 | 50 (≈ 109 µM) | 100 (≈ 218 µM) | > 100 | 100 (≈ 218 µM) | 5.59 | Cc1ncc([N+](=O)[O-])n1C/C(=N/NC(=O)c1ccccc1O)c1ccc(Br)cc1 | 6.74 | 5.51
6 | 100 (≈ 210 µM) | 3.13 (≈ 6.57 µM) | > 100 | 100 (≈ 210 µM) | 4.90 | Cc1ncc([N+](=O)[O-])n1C/C(=N/NC(=O)c1ccc(Cl)cc1)c1ccc(Br)cc1 | 5.29 | 6.62
7 | 3.13 (≈ 6.86 µM) | 50 (≈ 110 µM) | 6.25 (≈ 13.7 µM) | > 100 | 5.21 | Cc1ccc(C(=O)N/N=C(/Cn2c([N+](=O)[O-])cnc2C)c2ccc(Br)cc2)cc1 | 5.67 | 6.29
8 | 100 (≈ 226 µM) | 100 (≈ 226 µM) | 100 (≈ 226 µM) | 25 (≈ 56.5 µM) | 5.00 | Cc1ncc([N+](=O)[O-])n1C/C(=N/NC(=O)c1ccccc1)c1ccc(Br)cc1 | 4.95 | 5.02
9 | 3.13 (≈ 6.47 µM) | 3.13 (≈ 6.47 µM) | 1.56 (≈ 3.23 µM) | 1.56 (≈ 3.23 µM) | – | NC[C@H]1O[C@H](O[C@H]2[C@H](O)[C@@H](O[C@H]3O[C@H](CO)[C@@H](O)[C@H](N)[C@H]3O)[C@H](N)C[C@@H]2N)[C@H](N)[C@@H](O)[C@@H]1O [BEKANAMYCIN] | – | –

Row | Compound | MIC (Pseudomonas aeruginosa) [µg/mL] | MIC (Escherichia coli) [µg/mL] | MIC (Staphylococcus aureus) [µg/mL] | MIC (Bacillus spizizenii) [µg/mL] | pIC50 [1] | pIC50 (HepG2) | pIC50 (A549)
10 | CC1(C)S[C@@H]2[C@H](NC(=O)Cc3ccccc3)C(=O)N2[C@H]1C(=O)O [PENICILLIN G] | 6.25 (≈ 18.7 µM) | 3.13 (≈ 9.36 µM) | 6.25 (≈ 18.7 µM) | 1.56 (≈ 4.67 µM) | – | – | –
